Experimental data as given in patent publication US11447533B2, “Antimicrobial and anticancer peptides and conjugates and compositions, methods, articles and kits relating thereto” (George Mason Research Foundation, Inc., priority 2018, dated 2022).

Tests used:
[1] = system: B. cereus ATCC 11778; assay: Antimicrobial efficacy (resazurin virtual colony count); type: cell-based, Bacillus cereus; details: DPBS
Method: Antimicrobial Studies. The phosphate buffers used for antimicrobial assays were supplemented with non-nitrogenous energy source, 0.1% (w/v) glucose. To conduct antimicrobial assays, bacterial strains were first suspended in respective buffers. E. coli (ATCC 25922) and B. cereus (ATCC 11778) were grown in MHB II up to OD600 nm˜1 and stored as frozen stock in 20% glycerol at −80° C. Occasionally they were thawed and enumerated by serial dilution and spreading on MHB II agar plates. The concentrations of the frozen stocks of E. coli and B. cereus strains were 1.0-1.1*10^8 CFU/mL with OD600 nm˜0.8. In case of other bacterial strains, they were grown on the days of experiment up to OD600 nm˜1-1.5 and then adjusted to OD600 nm˜0.8. The growth media of the drug-resistant bacterial strains were supplemented with few of the respective antibiotics against which they are resistant. […]
(§1) Antimicrobial assays in different phosphate buffers and serum were conducted by adapting, with necessary modifications a fast high-throughput method based on Virtual Colony Count technique and later modified by incorporating the use of resazurin. At first serial dilution of a microbial strain in respective buffer was poured in the wells of 96 well polypropylene microplate and was then added with same volume of 2× MHB II supplemented with 80 μg/mL resazurin and incubated at 35° C. in a Gemini EM Microplate Reader (Molecular Devices) overnight with intermittent shaking. As the microbe grows it reduces non-fluorescent resazurin to fluorescent resorufin and the fluorescent intensity of each well were measured (excitation=570 nm, emission=590 nm) each 5 min for 15 hours. The time (t, min) to reach a certain fluorescence (RFU=20000 with respect to the starting fluorescence) was correlated with the initial bacterial concentration (in CFU/mL) in the particular well to obtain a calibration plot of the form: Log([Bacteria],CFU/mL)=b+m*t Equation 4: […]

[2] = system: Klebsiella pneumoniae (ATCC BAA-1705); assay: Antimicrobial efficacy against ESKAPE pathogens; type: cell-based; details: mammalian serum
Method: (§2) Antimicrobial Studies. The phosphate buffers used for antimicrobial assays were supplemented with non-nitrogenous energy source, 0.1% (w/v) glucose. To conduct antimicrobial assays, bacterial strains were first suspended in respective buffers. E. coli (ATCC 25922) and B. cereus (ATCC 11778) were grown in MHB II up to OD600 nm˜1 and stored as frozen stock in 20% glycerol at −80° C. Occasionally they were thawed and enumerated by serial dilution and spreading on MHB II agar plates. The concentrations of the frozen stocks of E. coli and B. cereus strains were 1.0-1.1*10^8 CFU/mL with OD600 nm˜0.8. In case of other bacterial strains, they were grown on the days of experiment up to OD600 nm˜1-1.5 and then adjusted to OD600 nm˜0.8. The growth media of the drug-resistant bacterial strains were supplemented with few of the respective antibiotics against which they are resistant. 200 μL of the 0.8 OD600 nm culture were added to 10 mL of the respective buffer to obtain a suspension which was used to incubate with equal volumes of peptide solution in the same buffer.
as §1
(§3) To obtain antimicrobial efficacy of the peptides, 50 μL of serially diluted peptide in a buffer was incubated with 50 μL microbial suspension in the same buffer for 3 hours in black polypropylene 96 well plate. After incubation the wells were added with 100 μL of 2× MHB II supplemented with 80 μg/mL resazurin and then incubated with continuous fluorescence reading for overnight time period as described earlier. The surviving microbial population (CFU/mL) in each well were calculated by first finding the time to reach a fluorescence of RFU=20000 and the correlation (4) for the specific microbial strain and buffer. % Survival represents the proportion of viable cells in peptide treated cells relative to cells treated with the respective buffer alone. Equation 5: […]
(§4) Finally, the antimicrobial effectiveness of each peptide against the particular microbial strain in the specific buffer was determined by plotting % microbial survival as a function of the log of the concentration of the peptide and fitting the resulting data to a variable-slope sigmoidal regression model (equation 6). […]
(§5) ATRA1-R3W2-HYD, NA-CATH and PMB were evaluated for their effectiveness in mammalian serum conditions against pathogenic bacteria of both normal and drug-resistant strains. […]

[3] = system: Pseudomonas aeruginosa; assay: Antimicrobial efficacy against ESKAPE pathogens; type: cell-based
Method: as §2, §1, §3, §4, §5

[4] = system: multi-drug resistant (MDR) Acinetobacter baumannii (ATCC BAA-1795); assay: Antimicrobial efficacy against ESKAPE pathogens; type: cell-based; details: mammalian serum
Method: as §2, §1, §3, §4, §5

[5] = system: ESKAPE pathogens; assay: Antimicrobial efficacy against ESKAPE pathogens (all other than P. aeruginosa); type: cell-based; details: mammalian serum; susceptible and drug-resistant strains
Method: FIG. 8 is a graph showing antimicrobial efficacies of ATRA1-R3W2-HYD (blue), NA-CATH (dark orange) and PMB (green) against selected members of ESKAPE (Enterococcus faecium, Staphylococcus aureus, Klebsiella pneumoniae, Acinetobacter baumannii, Pseudomonas aeruginosa, and Enterobacter) pathogens. Both susceptible and drug-resistant strains were used. All the bacteria, except Pseudomonas aeruginosa, were tested under mammalian serum. P. aeruginosa results were obtained from testing in DPBS. The results are presented as mean of tests in triplicate with error-bars depicting the 95% confidence interval of the mean.
Antimicrobial Studies. The phosphate buffers used for antimicrobial assays were supplemented with non-nitrogenous energy source, 0.1% (w/v) glucose. […]
Antimicrobial assays in different phosphate buffers and serum were conducted by adapting, with necessary modifications a fast high-throughput method based on Virtual Colony Count technique and later modified by incorporating the use of resazurin. At first serial dilution of a microbial strain in respective buffer was poured in the wells of 96 well polypropylene microplate and was then added with same volume of 2× MHB II supplemented with 80 μg/mL resazurin and incubated at 35° C. in a Gemini EM Microplate Reader (Molecular Devices) overnight with intermittent shaking. […]

[6] = system: primary lung epithelium cells; assay: Cytotoxicity (Alamar blue); type: cell-based, human; details: ~16 hours (overnight), reduced serum conditions
Method: FIGS. 11A-11B are graphs showing cytotoxicity against primary lung epithelium cells in serum-free condition. Cells were seeded in complete growth medium (Minimal essential medium supplemented with 10% fetal bovine serum) at near-confluence into a 96-well plate and allowed to settle for 24-hours. Media was then replaced to OptiMEM I reduced serum medium containing peptide or vehicle alone (DBPS) and cells were incubated overnight (16 hours). A resazurin based dye (Alamar blue) was added directly to media and conversion of resazurin to resorufin was evaluated following two hours. % Survival represents the proportion of viable cells in peptide treated cells relative to cells treated with vehicle alone. […] Each peptide was tested in triplicate.
FIG. 12 is a graph showing comparison of toxicities against Lung Primary Epithelial cells and Lung Cancerous Epithelial Cells, derived from H358 cell-line. […] Each peptide was tested in triplicate.
Cytotoxicity. Cells were seeded in complete growth medium (Minimal Essential Medium, MEMα, supplemented with 10% Fetal Bovine Serum) into a culture-treated 96-well plate at a density of 25000 cells per well. After 24 hours, culture media was aspirated and replaced with media containing the selected peptide. No-serum experiments were conducted in Opti-MEM I reduced serum media (ThermoFisher, 31985062) and 10% serum experiments were performed in complete growth medium. In all cases, DBPS was used as a vehicle only control and buffer to serially dilute the peptides. After exposure to the peptides or vehicle-alone for the defined period, Alamar blue dye (resazurin) was added directly to the media and allowed to incubate for two hours. Following incubation, A570/A600 measurements were made to calculate reduction of resazurin dye to resorufin. A ratio of reduction in treated versus untreated cells was calculated in order to determine overall cell viability. The human cells were always maintained in a 37° C. incubator under 5% CO2.

Row | Sequence | antimicrobial efficacy, in words [1] | antimicrobial effectiveness, in words [2] | antimicrobial effectiveness, in words ([3]; DPBS) | antimicrobial effectiveness, in words ([3]; mammalian serum) | antimicrobial effectiveness, in words [4] | antimicrobial effectiveness, in words [5] | concentration decreasing resazurin reduction by 50% (LD50) [6] [µM] | concentration over which significant toxicity was observed [6] [µM]
1 | KRAKKFFKKLK (SEQ ID NO: 4) [ATRA1-A] | not effective |  |  |  |  |  |  | 
2 | KRFKKFFKKLK (SEQ ID NO: 2) [ATRA1, first 11 residues of NA-CATH] | somewhat effective |  |  |  |  |  |  | 
3 | RRWKRFFKRWKGGVIGVTFPF (SEQ ID NO: 50) [ATRA1-R3W2-HYD, ATRA1-R3W2 with hydrophobic tail of NA-CATH joined by -GG-] |  | effective in mammalian serum | good bactericidal properties | did not demonstrate antimicrobial effectiveness | effective in mammalian serum | highly effective, though in lower degree than PMB | ~50 | ~50
